Measurements from the NIST ThermoML archive (doi:10.1021/je200124h).

Key:
[1] = wn = mass fraction of the nth substance listed; conditions: for mass density / viscosity: Liquid; for mass density: Pycnometric method; for surface tension liquid-gas: Ring tensiometer
[2] = for surface tension liquid-gas: Ring tensiometer; for viscosity / mass density: 101.33 kPa, Liquid; for viscosity: Capillary tube (Ostwald / Ubbelohde) method; for mass density: Pycnometric method

O=S1(=O)CCCC1 [sulfolane] + O
[1], 101 kPa
Conditions	mass density, 303.15 K [kg/m3]	mass density, 313.15 K [kg/m3]	mass density, 323.15 K [kg/m3]	mass density, 333.15 K [kg/m3]	mass density, 343.15 K [kg/m3]	viscosity, 303.15 K [mPa·s]	viscosity, 313.15 K [mPa·s]	viscosity, 323.15 K [mPa·s]	viscosity, 333.15 K [mPa·s]	viscosity, 343.15 K [mPa·s]
w1 = 0.0346	1003	999.7	995.2	990.1	984.3	0.84	0.69	0.58	0.49	0.43
w1 = 0.0487	1007	1003	998.2	993	987	0.85	0.7	0.59	0.5	0.44
w1 = 0.0721	1012	1007	1003	998.9	991.7	0.88	0.73	0.61	0.52	0.45
w1 = 0.1022	1020	1016	1010	1005	998	0.92	0.76	0.64	0.55	0.48
w1 = 0.1635	1038	1032	1026	1020	1012	1.02	0.84	0.71	0.61	0.54

OCCN(CCO)CCO [triethanolamine]
[2]
Conditions	mass density [kg/m3]	surface tension liquid-gas [mN/m]	viscosity [mPa·s]
303.15 K	1119.6	45.13	405.6
313.15 K	1113.8	43.54	208.6
323.15 K	1107.9	41.85	116
333.15 K	1102	40.04	64.55
343.15 K	1096.2	38.11	38.79

O=S1(=O)CCCC1 [sulfolane]
[2]
Conditions	mass density [kg/m3]	surface tension liquid-gas [mN/m]	viscosity [mPa·s]
303.15 K	1262.3	47.95	10.18
313.15 K	1254	47.22	7.85
323.15 K	1245.7	46.61	6.15
333.15 K	1236.5	45.74	4.4
343.15 K	1229	45.16	3.57

C1CNCCN1 [piperazine] + O
[1], w1 = 0.0516
Conditions	surface tension liquid-gas [mN/m]
303.15 K	69.56
313.15 K	67.98
323.15 K	66.49
333.15 K	65.17

[1], 101 kPa, w1 = 0.0516
Conditions	mass density [kg/m3]	viscosity [mPa·s]
303.15 K	998.34	0.959
313.15 K	993.9	0.775
323.15 K	989.79	0.641
333.15 K	985.1	0.542

CC(O)CNCC(C)O (configuration not stated) [N-(2-hydroxypropyl)-2-hydroxy-1-propanamine] + O
[1], w1 = 0.3873
Conditions	surface tension liquid-gas [mN/m]
303.15 K	45.3
313.15 K	44.4
323.15 K	43.2
333.15 K	42.1
343.15 K	40.5

[1], w1 = 0.3873
Conditions	mass density, 303.15 K [kg/m3]	mass density, 313.15 K [kg/m3]	mass density, 323.15 K [kg/m3]	mass density, 333.15 K [kg/m3]	mass density, 343.15 K [kg/m3]	viscosity, 303.15 K [mPa·s]	viscosity, 313.15 K [mPa·s]	viscosity, 323.15 K [mPa·s]	viscosity, 333.15 K [mPa·s]	viscosity, 343.15 K [mPa·s]
101 kPa	–	–	–	–	–	5.42	3.74	2.56	1.88	1.42
101.3 kPa	1016	1012	1006	1000	994.5	–	–	–	–	–

OCCN(CCO)CCO [triethanolamine] + O
[1], w1 = 0.4227
Conditions	surface tension liquid-gas [mN/m]
303.15 K	54.5
313.15 K	53.8
323.15 K	53
333.15 K	52.3
343.15 K	51.4

[1], w1 = 0.4227
Conditions	mass density, 303.15 K [kg/m3]	mass density, 313.15 K [kg/m3]	mass density, 323.15 K [kg/m3]	mass density, 333.15 K [kg/m3]	mass density, 343.15 K [kg/m3]	viscosity, 303.15 K [mPa·s]	viscosity, 313.15 K [mPa·s]	viscosity, 323.15 K [mPa·s]	viscosity, 333.15 K [mPa·s]	viscosity, 343.15 K [mPa·s]
101 kPa	–	–	–	–	–	4.13	2.91	2.16	1.67	1.36
101.3 kPa	1052	1048	1043	1037	1032	–	–	–	–	–
